Positions count from the first letter of the chain named.
Legend:
Format in all cases: binding
STAT5a Trp566Arg = target: T1, STAT5a Trp566Arg (Homo sapiens, UniProt P42229, W566R); experiment: Fluorescence polarization assay, point mutant STAT5a Trp566Arg
T1 construct: made in house
T1 sequence (P42229 1-794 W566R): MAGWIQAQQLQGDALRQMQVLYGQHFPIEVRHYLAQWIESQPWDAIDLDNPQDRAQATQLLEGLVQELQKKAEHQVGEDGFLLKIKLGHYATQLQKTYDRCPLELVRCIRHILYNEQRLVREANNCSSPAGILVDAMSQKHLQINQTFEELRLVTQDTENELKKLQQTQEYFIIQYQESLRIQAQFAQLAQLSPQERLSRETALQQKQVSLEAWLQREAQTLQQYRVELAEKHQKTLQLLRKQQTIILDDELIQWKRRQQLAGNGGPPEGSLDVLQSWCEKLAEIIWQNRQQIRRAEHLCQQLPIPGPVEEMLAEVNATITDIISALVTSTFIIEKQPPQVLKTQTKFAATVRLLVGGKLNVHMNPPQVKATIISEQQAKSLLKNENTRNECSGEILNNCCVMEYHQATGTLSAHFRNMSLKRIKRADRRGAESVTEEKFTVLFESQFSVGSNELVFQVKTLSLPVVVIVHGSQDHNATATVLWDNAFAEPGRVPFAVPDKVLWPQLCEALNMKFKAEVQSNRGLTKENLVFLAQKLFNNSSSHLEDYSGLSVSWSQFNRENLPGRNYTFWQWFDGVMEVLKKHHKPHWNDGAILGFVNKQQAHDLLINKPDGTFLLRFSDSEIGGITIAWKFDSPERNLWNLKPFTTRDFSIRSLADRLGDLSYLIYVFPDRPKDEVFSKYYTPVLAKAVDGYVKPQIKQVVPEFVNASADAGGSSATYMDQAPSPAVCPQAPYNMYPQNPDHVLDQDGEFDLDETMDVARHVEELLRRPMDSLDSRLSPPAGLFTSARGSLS

[1] = target: T2, STAT5a Trp566Arg/Lys644Met (Homo sapiens, UniProt P42229, K644M/W566R); experiment: Fluorescence polarization assay, double mutant STAT5a Trp566Arg/Lys644Met; conditions: FP assay
T2 construct: made in house
T2 sequence (P42229 1-794 W566R/K644M): T1 sequence (P42229 1-794 W566R) with K644M

[2] = target: T3, STAT5b Arg566Trp/Gln636Pro/Met639Asn/Phe640Leu/Met644Lys/Asn664Ser/Tyr679Phe (STAT5b‐7M) (Homo sapiens, UniProt P51692, F640L/M639N/M644K/N664S/Q636P/R566W/Y679F); experiment: Fluorescence polarization assay, mutant STAT5b-7M; conditions: FP assay
T3 construct: made in house
T3 sequence (P51692 1-787 R566W/Q636P/M639N/F640L/M644K/N664S/Y679F): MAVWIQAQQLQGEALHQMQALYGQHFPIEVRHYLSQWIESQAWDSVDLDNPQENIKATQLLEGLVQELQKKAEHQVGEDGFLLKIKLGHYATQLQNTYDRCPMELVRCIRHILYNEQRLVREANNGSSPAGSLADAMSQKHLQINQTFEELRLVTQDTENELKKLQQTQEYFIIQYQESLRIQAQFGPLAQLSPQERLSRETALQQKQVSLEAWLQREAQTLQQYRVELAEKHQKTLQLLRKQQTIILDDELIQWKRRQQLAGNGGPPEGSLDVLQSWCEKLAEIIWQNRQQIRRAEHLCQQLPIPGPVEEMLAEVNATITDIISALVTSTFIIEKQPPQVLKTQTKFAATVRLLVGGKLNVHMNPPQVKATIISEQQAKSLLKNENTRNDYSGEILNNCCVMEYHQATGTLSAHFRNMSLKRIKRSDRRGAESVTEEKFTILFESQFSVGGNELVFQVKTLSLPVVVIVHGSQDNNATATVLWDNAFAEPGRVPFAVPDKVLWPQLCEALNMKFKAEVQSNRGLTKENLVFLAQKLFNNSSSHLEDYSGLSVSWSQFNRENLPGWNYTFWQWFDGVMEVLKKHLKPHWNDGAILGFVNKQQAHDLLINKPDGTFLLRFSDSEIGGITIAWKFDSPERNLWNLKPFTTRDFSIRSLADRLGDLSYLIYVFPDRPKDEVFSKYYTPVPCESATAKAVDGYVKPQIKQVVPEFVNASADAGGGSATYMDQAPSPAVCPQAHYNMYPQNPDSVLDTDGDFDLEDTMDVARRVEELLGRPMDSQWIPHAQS

[3] = FP assay, double-purified protein

COc1cc(-c2cc(OP(=O)(O)O)cc(-c3cc(OC)c(OC)c(OC)c3)c2)cc(OC)c1OC [Compound 20]
IC50 (STAT5a Trp566Arg; [3]): 155 ± 15 µM | Ki (STAT5a Trp566Arg; [3]): 74 ± 7 µM | reduction of activity against STAT5a Trp566Arg as compared to wild-type STAT5a (STAT5a Trp566Arg; FP assays): 7 fold | inhibition at 200 µM [1]: 44 ± 4% | IC50 [2]: 42.6 ± 8.8 µM | Ki [2]: 21.1 ± 4.4 µM

Source: PMC6973011, “Stafia‐1: a STAT5a‐Selective Inhibitor Developed via Docking‐Based Screening of in Silico O‐Phosphorylated Fragments” (Chemistry (Weinheim an Der Bergstrasse, Germany), 2019)
